What is called IC50 is the concentration that gives 50% inhibition. Lower therefore signals higher potency.

Data on 18 compounds can be found in patent publication US20180148418A1, “AMIDO-SUBSTITUTED CYCLOHEXANE DERIVATIVES” (Bayer Pharma Aktiengesellschaft, priority 2015, published 2018).

The subject of experiment [1] is wildtype Wnt signaling cascade. In words: HEK293 TOP assay (Super TopFlash luciferase reporter, Wnt-3a stimulated). The format is cell-based. To be noted: Homo sapiens, HEK293, 16 h, HEK293 TOP reporter cells, Wnt3a at EC50, 16 hours. The procedure, abridged: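 HEK293 cells stably carrying Super TopFlash (TOP) run in parallel with FOP cells, 10000/well plated 24 h ahead, stimulated with recombinant human Wnt-3a. Compounds tested 50 μM to 15 nM in 3.16-fold steps in CAFTY buffer pH 7.4 with 2 mM Ca^2+ and 0.01% BSA; luciferase read-out.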
In general terms: Reporter assays use an easily measured gene product as a stand-in for the process of interest.

Experiment [2] relates to HEK293 cells cotransfected with the FOP control vector. The experiment can be described thus: HEK293 FOP assay (control reporter with non-functional TCF elements). The format is cell-based. To be noted: Homo sapiens, 16 hours. The procedure, abridged: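 Stable HEK293 line carrying FOP control reporter (randomized non-functional TCF sites, with pcDNA3), Geneticin-selected, plated 24 h before assay. Stimulated with recombinant human Wnt-3a (2500-5 ng/ml) and compounds 50 μM–15 nM (3.16-fold steps) in CAFTY buffer pH 7.4 with 2 mM Ca2+, 0.01% BSA, run parallel to TOP line.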

Experiment [3] concerns the target T1, TNKS2 (Homo sapiens, UniProt Q9H2K2).
T1 construct: purchased BPS Bioscience, San Diego, USA 80572 (TNKS2 Histone Ribosylation Assay Kit)
T1 sequence (Q9H2K2 1-1166): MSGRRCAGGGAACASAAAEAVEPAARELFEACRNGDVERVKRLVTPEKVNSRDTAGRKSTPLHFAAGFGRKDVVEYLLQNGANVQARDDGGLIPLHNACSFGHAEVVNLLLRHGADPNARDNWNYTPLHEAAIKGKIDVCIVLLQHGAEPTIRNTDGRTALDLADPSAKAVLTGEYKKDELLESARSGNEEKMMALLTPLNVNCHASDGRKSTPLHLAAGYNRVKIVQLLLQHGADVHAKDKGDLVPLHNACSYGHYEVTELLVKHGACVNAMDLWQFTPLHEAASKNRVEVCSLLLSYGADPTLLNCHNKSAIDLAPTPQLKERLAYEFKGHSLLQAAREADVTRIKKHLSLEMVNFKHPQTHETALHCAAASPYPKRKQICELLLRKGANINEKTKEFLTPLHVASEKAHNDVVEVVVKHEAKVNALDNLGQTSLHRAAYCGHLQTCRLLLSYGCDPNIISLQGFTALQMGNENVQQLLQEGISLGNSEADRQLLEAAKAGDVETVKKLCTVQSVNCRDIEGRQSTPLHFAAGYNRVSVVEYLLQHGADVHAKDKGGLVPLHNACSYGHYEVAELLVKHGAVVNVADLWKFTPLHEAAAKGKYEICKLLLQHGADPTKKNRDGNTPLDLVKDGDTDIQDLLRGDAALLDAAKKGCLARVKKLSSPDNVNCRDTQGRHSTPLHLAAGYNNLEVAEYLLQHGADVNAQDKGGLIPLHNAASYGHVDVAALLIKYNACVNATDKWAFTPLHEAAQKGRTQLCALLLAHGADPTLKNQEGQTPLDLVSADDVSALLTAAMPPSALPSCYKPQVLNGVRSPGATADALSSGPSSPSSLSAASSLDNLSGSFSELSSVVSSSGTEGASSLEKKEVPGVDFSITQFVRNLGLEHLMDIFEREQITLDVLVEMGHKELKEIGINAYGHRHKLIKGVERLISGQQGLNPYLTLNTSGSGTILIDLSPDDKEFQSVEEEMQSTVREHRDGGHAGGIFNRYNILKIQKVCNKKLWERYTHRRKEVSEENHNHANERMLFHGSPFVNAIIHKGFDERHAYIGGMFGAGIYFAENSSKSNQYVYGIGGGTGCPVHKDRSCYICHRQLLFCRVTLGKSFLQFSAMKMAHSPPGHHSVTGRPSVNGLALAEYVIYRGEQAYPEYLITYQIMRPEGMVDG
In words: TNKS2 Assay B (auto-parsylation, [3H]-NAD+ SPA). The settings on record: 6 nM TNKS2, auto-parsylation, over night at room temperature. It counts as biochemical.

On to `O=C(N[C@H]1CC[C@@]2(CCN(c3cc(F)c(F)cc3Cl)C2=O)CC1)c1[nH]cnc1C(=O)N1CC(F)C1` [Example 200, N-[(trans)-2-(2-chloro-4,5-difluorophenyl)-1-oxo-2-azaspiro[4.5]dec-8-yl]-4-[(3-fluoroazetidin-1-yl)carbonyl]-1H-imidazole-5-carboxamide], for which the 50% inhibitory concentration (IC50) was found to be 0.17 nM in experiment [1], 30000 nM in experiment [2] and 2.6 nM in experiment [3].

Turning to `O=C(NCC(F)(F)F)c1nc[nH]c1C(=O)N[C@H]1CC[C@@]2(CCN(c3cc(F)c(F)cc3Cl)C2=O)CC1` [Example 201, N^5-[(trans)-2-(2-chloro-4,5-difluorophenyl)-1-oxo-2-azaspiro[4.5]dec-8-yl]-N^4-(2,2,2-trifluoroethyl)-1H-imidazole-4,5-dicarboxamide], the IC50 is 0.54 nM in experiment [1], 22000 nM in experiment [2] and 2.2 nM in experiment [3].

`COCCNC(=O)c1nc[nH]c1C(=O)N[C@H]1CC[C@@]2(CCN(c3cc(F)c(F)cc3Cl)C2=O)CC1` [Example 202, N^5-[(trans)-2-(2-chloro-4,5-difluorophenyl)-1-oxo-2-azaspiro[4.5]dec-8-yl]-N^4-(2-methoxyethyl)-1H-imidazole-4,5-dicarboxamide]: the values for the IC50 in experiment [1], in experiment [2] and in experiment [3] were 0.55 nM, 39000 nM and 2.9 nM, respectively.

For the compound `CNC(=O)c1nc[nH]c1C(=O)N[C@H]1CC[C@H](C(=O)N(C)c2ccccc2C)CC1` [Example 203, N^4-methyl-N^5-{trans-4-[methyl(2-methylphenyl)carbamoyl]cyclohexyl}-1H-imidazole-4,5-dicarboxamide], the IC50 is 25000 nM in experiment [1], not below 50000 nM in experiment [2] and 480 nM in experiment [3].

In the case of `O=C(N[C@H]1CC[C@H](C(=O)Nc2ccc(F)cc2Cl)CC1)c1cnn2ccccc12` [Example 205, N-{trans-4-[(2-chloro-4-fluorophenyl)carbamoyl]cyclohexyl}pyrazolo[1,5-a]pyridine-3-carboxamide], the IC50 in experiment [1] stood at 500 nM; in experiment [2] it was 25000 nM; in experiment [3], 2500 nM.

Consider `O=C(N[C@H]1CC[C@H](C(=O)Nc2ccc(F)cc2Cl)CC1)c1cnc2ccccn12` [Example 206, N-{trans-4-[(2-chloro-4-fluorophenyl)carbamoyl]cyclohexyl}imidazo[1,2-a]pyridine-3-carboxamide], for which the values for the half-inhibitory concentration (IC50) in experiment [1], in experiment [2] and in experiment [3] were 500 nM, 25000 nM and more than 10000 nM, respectively.

In the case of `Cc1cc(C)n2ncc(C(=O)N[C@H]3CC[C@]4(CCN(c5ccc(F)cc5)C4=O)CC3)c2n1` [Example 208, N-[(cis)-2-(4-fluorophenyl)-1-oxo-2-azaspiro[4.5]dec-8-yl]-5,7-dimethyl pyrazolo[1,5-a]pyrimidine-3-carboxamide], the values for the IC50 in experiment [1], in experiment [2] and in experiment [3] were 660 nM, not below 50000 nM and 3200 nM, respectively.

For the compound `O=C(N[C@H]1CC[C@@]2(CCN(c3ccc(F)cc3)C2=O)CC1)c1cnn2cccnc12` [Example 209, N-[(trans)-2-(4-fluorophenyl)-1-oxo-2-azaspiro[4.5]dec-8-yl]pyrazolo[1,5-a]pyrimidine-3-carboxamide], the half-maximal inhibitory concentration (IC50) in experiment [1] was 99 nM; in experiment [2] it was not below 50000 nM; in experiment [3], 240 nM.

With `Cc1cnc2c(C(=O)N[C@H]3CC[C@@]4(CCN(c5ccc(F)cc5)C4=O)CC3)cnn2c1` [Example 210, N-[(trans)-2-(4-fluorophenyl)-1-oxo-2-azaspiro[4.5]dec-8-yl]-6-methylpyrazolo[1,5-a]pyrimidine-3-carboxamide], the IC50 was 280 nM in experiment [1], 25000 nM in experiment [2] and 92 nM in experiment [3].

For `Cc1cc(C)n2ncc(C(=O)N[C@H]3CC[C@@]4(CCN(c5ccc(F)cc5)C4=O)CC3)c2n1` [Example 211, N-[(trans)-2-(4-fluorophenyl)-1-oxo-2-azaspiro[4.5]dec-8-yl]-5,7-di methyl pyrazolo[1,5-a]pyrimidine-3-carboxamide], the IC50 was determined as 270 nM in experiment [1], 25000 nM in experiment [2] and 74 nM in experiment [3].

In the case of `CNC(=O)c1[nH]cnc1C(=O)N[C@H]1CC[C@@]2(CCN(c3ccc(F)cc3)C2=O)CC1` [Example 212, N^4-[(trans)-2-(4-fluorophenyl)-1-oxo-2-azaspiro[4.5]dec-8-yl]-N^5-methyl-1H-imidazole-4,5-dicarboxamide], the results for the IC50 in experiment [1], in experiment [2] and in experiment [3] were 88 nM, 38000 nM and 290 nM, respectively.

With `CCNC(=O)c1[nH]cnc1C(=O)N[C@H]1CC[C@@]2(CCN(c3ccc(F)cc3)C2=O)CC1` [Example 213, N^5-ethyl-N^4-[(trans)-2-(4-fluorophenyl)-1-oxo-2-azaspiro[4.5]dec-8-yl]-1H-imidazole-4,5-dicarboxamide], the values for the 50% inhibitory concentration (IC50) in experiment [1], in experiment [2] and in experiment [3] were 140 nM, 30000 nM and 220 nM, respectively.

For `O=C(N[C@H]1CC[C@@]2(CCN(c3ccc(F)cc3Cl)C2=O)CC1)c1cnn2cc(CCO)cnc12` [Example 214, N-[(trans)-2-(2-chloro-4-fluorophenyl)-1-oxo-2-azaspiro[4.5]dec-8-yl]-6-(2-hydroxyethyl)pyrazolo[1,5-a]pyrimidine-3-carboxamide], the results for the concentration for half-maximal inhibition (IC50) in experiment [1], in experiment [2] and in experiment [3] were 16 nM, not below 50000 nM and 5.3 nM, respectively.

Regarding `CNc1ccn2ncc(C(=O)N[C@H]3CC[C@@]4(CCN(c5ccc(F)cc5Cl)C4=O)CC3)c2n1` [Example 215, N-[(trans)-2-(2-chloro-4-fluorophenyl)-1-oxo-2-azaspiro[4.5]dec-8-yl]-5-(methylamino)pyrazolo[1,5-a]pyrimidine-3-carboxamide], the concentration for half-maximal inhibition (IC50) is 5.5 nM in experiment [1], not below 50000 nM in experiment [2] and 2.2 nM in experiment [3].

For the compound `Cc1nn2cccnc2c1C(=O)N[C@H]1CC[C@@]2(CCN(c3ccc(F)cc3Cl)C2=O)CC1` [Example 216, N-[(trans)-2-(2-chloro-4-fluorophenyl)-1-oxo-2-azaspiro[4.5]dec-8-yl]-2-methylpyrazolo[1,5-a]pyrimidine-3-carboxamide], the half-maximal inhibitory concentration (IC50) in experiment [1] is 71 nM; in experiment [2], not below 50000 nM; in experiment [3], 340 nM.

Consider `CN(C)c1ccn2ncc(C(=O)N[C@H]3CC[C@@]4(CCN(c5ccc(F)cc5Cl)C4=O)CC3)c2n1` [Example 217, N-[(trans)-2-(2-chloro-4-fluorophenyl)-1-oxo-2-azaspiro[4.5]dec-8-yl]-5-(dimethylamino)pyrazolo[1,5-a]pyrimidine-3-carboxamide], for which the IC50 was 3.7 nM in experiment [1], not below 50000 nM in experiment [2] and 1.7 nM in experiment [3].

For `COc1ccn2ncc(C(=O)N[C@H]3CC[C@@]4(CCN(c5ccc(F)cc5Cl)C4=O)CC3)c2n1` [Example 218, N-[(trans)-2-(2-chloro-4-fluorophenyl)-1-oxo-2-azaspiro[4.5]dec-8-yl]-5-methoxypyrazolo[1,5-a]pyrimidine-3-carboxamide], the IC50 in experiment [1] is 16 nM; in experiment [2], not below 50000 nM; in experiment [3], 4.8 nM.

For the compound `Cc1ccn2ncc(C(=O)N[C@H]3CC[C@@]4(CCN(c5ccc(F)cc5Cl)C4=O)CC3)c2n1` [Example 221, N-[(trans)-2-(2-chloro-4-fluorophenyl)-1-oxo-2-azaspiro[4.5]dec-8-yl]-5-methylpyrazolo[1,5-a]pyrimidine-3-carboxamide], the 50% inhibitory concentration (IC50) is 1.5 nM in experiment [1], 18000 nM in experiment [2] and 3.8 nM in experiment [3].
